In patent publication US20220168312A1, “MULTICOMPONENT CRYSTAL FORMULATIONS” (UNIVERSITY OF LIMERICK, priority 2019, published 2022):

Experiments:
[1] = Tensile stress test of tablets; format: physicochemical
Method: Hardness testing was performed immediately after tableting using a Pharma Test hardness tester. Each compaction force was tested in triplicate. Tensile strength was calculated according to the Equation 1 where F is the load required to fracture the tablet, D the table diameter and H the tablet height: Tensile strength=2F/πDH Equation 1: […]

[2] = cited from earlier work
Thermal analysis (TGA) = format: physicochemical; conditions: 10° C./min, nitrogen
Method: Thermal Analysis: Thermogravimetric analysis (TGA) was performed using a TA Instruments TGA-Q50 on at a constant rate of 10° C./min from 25° C. to 350° C. under a flux of nitrogen of 50 ml/min. Differential Scanning Calorimetry (DSC) was carried out using sealed aluminium pans on a TA instruments DSC-Q2000 differential scanning calorimeter. Temperature calibrations were made using indium as the standard. An empty pan, sealed in the same way as the sample, was used as a reference. All the thermograms were run at a heating/cooling rate of 10° C./min under a nitrogen purge at a rate of 50 ml/min.

[3] = format: physicochemical; conditions: intrinsic dissolution of compacts, 37° C., relative to pure LAM
Method: These compacts were each coated with paraffin wax, leaving one surface exposed and secured to the bottom of the dissolution apparatus with excess paraffin wax. Intrinsic solubility was determined using a 900 ml well filled with 900 ml of degassed, deionised water (or 0.1 M HCl solution) on a Pharma Test USP type II system. The solution had been previously equilibrated at 37° C. and the paddle speed was set to 100 rpm after adding the samples. Aliquots of media were withdrawn at 5, 10, 15, 20 30 and 60 minutes (or 0.25, 0.5, 1, 3, 6, 12 and 24 hours), filtered through 0.45 μm PTFE filters and tested via a UV spectrometer in triplicate.
UV-Vis absorbance measurements were carried on a Cary 60 UV-Vis spectrometer using 1 ml quartz cuvettes.

[4] = format: physicochemical
Method: The product was recovered by filtration and dried in air.
Powder X-ray diffraction (PXRD): X-ray powder diffraction (XRPD) patterns were collected in Bragg-Brentano geometry on a PANalytical Empyrean diffractometer equipped with a sealed tube (Cu Kα12, λ=1.5418 Å) an 1D X'Celerator detector between 4 and 40° 2θ.

[5] = format: physicochemical; remark: listed apart in the source
Method: Stability testing: Accelerated stability testing was conducted by taking 100 mg of powdered sample and placing it into a humidity chamber under 75% relative humidity at 40° C. for 14 days. The samples were analysed before and after testing by PXRD, FT-IR, DSC and TGA.

## Nc1nnc(-c2cccc(Cl)c2Cl)c(N)n1 [LAM, lamotrigine]
[1]; tablets obtained with a compaction weight lower than 400 kg
  tablet hardness / tensile strength: too brittle to enable hardness testing
[2]; in vivo
  half-life: rather short half-life
[2]; orally
  oral bioavailability: 90%

## lamotrigine:valproic acid (1:2) ionic cocrystal [LAMVAL]
Thermal analysis (TGA)
  thermally stable up to (thermogravimetric analysis): around 100 °C
[1]; across a range of compaction forces
  tensile strength compared with LAM: significantly greater tensile strength
[3]
  intrinsic dissolution, faster than pure LAM: 2 ×
[4]
  stability as a slurry in water (PXRD): stable as a slurry in water
[5]
  crystallinity after accelerated stability test (PXRD): remains crystalline
  product degradation after accelerated stability test (FT-IR and DSC): no sign of product degradation
